The structures appear in SMILES notation.

The subject of one assay is fly larvae. The note with it: 25 ppm of compound (A); surface of poultry dung and cow dung. The method, then:
An application was carried out at the surface of poultry dung and of cow dung treated beforehand with fly larvae.

Assay [1] relates to darkling beetles (Alphitobius diaperinus). As to the kind of experiment: Poultry house litter treatment, darkling beetle population monitored with 9 traps. The format is in vivo. As to conditions: water-dispersible granules containing 80% of compound (A), 150 g/ha; during the 10th week (end of a rearing cycle). Here is the method:
The treatment took place on the clean litter before the poultry was installed therein. The clean litter was essentially composed of straw.
On the day after the treatment, a group of chicks aged 1 to 2 days was installed in the rearing house at the rate of approximately 7 animals per m^2.
The change in the population of darkling beetles (Alphitobius diaperinus) in the litter was regularly monitored using 9 homogeneously distributed traps. Measurements were carried out each week from the second week after the treatment until rearing was halted.
The total population of darkling beetles in the 9 traps of the treated poultry house varied between 11 and 96 until the 9th week after treatment whereas, in a similar but untreated poultry house, the population of darkling beetles (larvae and adults) oscillated between 1000 and 3000 at each counting point.

A further assay has as its system adult Tenebrio molitor. As to the kind of experiment: whole plant or invertebrate. As to conditions: in Solanum tuberosum, 24 h. Here is the method: Ten (10) gram pieces of potato were placed into individual jars. […] The acetone-surfactant solution comprised acetone. Triton® 152, and Triton® 172 mixed in volumetric ratio of about 785:1:3. […] Adult Tenebrio molitor and a strip of paper towel 1 cm by 3 cm were added to each jar. Mortality was rated at 1 day after treatment.
If the actually observed value is greater than the expected value […] then there is synergism.

Take `N#Cc1nn(-c2c(Cl)cc(C(F)(F)F)cc2Cl)c(N)c1[S+]([O-])C(F)(F)F` (stereo not drawn) [compound (A), 1-[2,6-Cl2-4-CF3phenyl]-3-CN-4-[SO—CF3]-5-NH2pyrazole]: in the assay with fly larvae, the “inhibition of larval development of the flies (effectiveness with respect to untreated controls)” value worked out at 100%. Besides, in assay [1], the “control of darkling beetles” value amounted to 86%.
With `CNC(=O)Oc1cccc2ccccc12` [Carbaryl, 1-naphthyl methylcarbamate, reference compound], in the assay with adult Tenebrio molitor, the mortality (usually the percentage killed) at 6.25 ppm was determined as 0%, the mortality at 25 ppm is 27%, the mortality at 100 ppm was 80% and the mortality at 400 ppm worked out at 93%.

Values taken from patent US6358988B1, “Process and composition for the antiparasitic treatment of the surroundings of animals” (priority 1996, dated 2002).
